What was measured:
Experiment in all cases: Saturation binding of [^3H]VUF10166 at 5-HT3A receptor mutant
5-HT3A receptor Q151C = molecular target: T1, 5-HT3A receptor Q151C (Homo sapiens, UniProt P46098, Q146C); conditions: Q151C, Loop E; read-out: Kd (nM) Mean ± SEM
T1 construct: expressed in transfected cells; host or cells: HEK 293
Protocol: (§1) Mutagenesis was performed using the QuikChange method (Agilent Technologies Inc., California, USA) on human 5-HT3A cDNA (accession number: P46098) cloned into pcDNA3.1 (Invitrogen, Paisley, UK). Cysteine residues were substituted for amino acids throughout each of the binding loops A–E (Fig. 1). To facilitate comparisons with previous work, we use the numbering of the equivalent residues in the mouse 5-HT3A subunit; for human numbering 5 should be subtracted from each residue number.
(§2) All data were analysed using GraphPad Prism 4.03.

5-HT3A receptor T181C = molecular target: T2, 5-HT3A receptor T181C (Homo sapiens, UniProt P46098, T176C/T181C); conditions: Loop B, read-out: Kd (nM) Mean ± SEM
T2 construct: expressed in transfected cells; host or cells: HEK 293
Protocol: as §1, §2

5-HT3A receptor E129C = molecular target: T3, 5-HT3A receptor E129C (Homo sapiens, UniProt P46098, E124C); conditions: Loop A, read-out: Kd (nM) Mean ± SEM
T3 construct: expressed in transfected cells; host or cells: HEK 293
Protocol: as §1, §2

5-HT3A receptor I139C = molecular target: T4, 5-HT3A receptor I139C (Homo sapiens, UniProt P46098, I134C); conditions: I139C, Loop E; read-out: Kd (nM) Mean ± SEM
T4 construct: expressed in transfected cells; host or cells: HEK 293
Protocol: as §1, §2

5-HT3A receptor R145C = molecular target: T5, 5-HT3A receptor R145C (Homo sapiens, UniProt P46098, R140C); conditions: R145C, Loop E; read-out: Kd (nM) Mean ± SEM
T5 construct: expressed in transfected cells; host or cells: HEK 293
Protocol: as §1, §2

5-HT3A receptor D189C = molecular target: T6, 5-HT3A receptor D189C (Homo sapiens, UniProt P46098, D184C); conditions: Loop B, read-out: Kd (nM) Mean ± SEM
T6 construct: expressed in transfected cells; host or cells: HEK 293
Protocol: as §1, §2

5-HT3A receptor I71C = molecular target: T7, 5-HT3A receptor I71C (Homo sapiens, UniProt P46098, I66C); conditions: I71C; read-out: Kd (nM) Mean ± SEM
T7 construct: expressed in transfected cells; host or cells: HEK 293
Protocol: as §1, §2

5-HT3A receptor T179C = molecular target: T8, 5-HT3A receptor T179C (Homo sapiens, UniProt P46098, T174C); conditions: Loop B, read-out: Kd (nM) Mean ± SEM
T8 construct: expressed in transfected cells; host or cells: HEK 293
Protocol: as §1, §2

5-HT3A receptor H185C = molecular target: T9, 5-HT3A receptor H185C (Homo sapiens, UniProt P46098, H180C); conditions: H185C, Loop B; read-out: Kd (nM) Mean ± SEM
T9 construct: expressed in transfected cells; host or cells: HEK 293
Protocol: as §1, §2

5-HT3A receptor R92C = molecular target: T10, 5-HT3A receptor R92C (Homo sapiens, UniProt P46098, R87C); conditions: R92C, Loop D; read-out: Kd (nM) Mean ± SEM
T10 construct: expressed in transfected cells; host or cells: HEK 293
Protocol: as §1, §2

5-HT3A receptor R58C = molecular target: T11, 5-HT3A receptor R58C (Homo sapiens, UniProt P46098, R53C); conditions: read-out: Kd (nM) Mean ± SEM
T11 construct: expressed in transfected cells; host or cells: HEK 293
Protocol: as §1, §2

5-HT3A receptor E236C = molecular target: T12, 5-HT3A receptor E236C (Homo sapiens, UniProt P46098, E231C); conditions: Loop C, read-out: Kd (nM) Mean ± SEM
T12 construct: expressed in transfected cells; host or cells: HEK 293
Protocol: as §1, §2

5-HT3A receptor Y234C = molecular target: T13, 5-HT3A receptor Y234C (Homo sapiens, UniProt P46098, Y229C); conditions: Loop C, read-out: Kd (nM) Mean ± SEM
T13 construct: expressed in transfected cells; host or cells: HEK 293
Protocol: as §1, §2

5-HT3A receptor N232C = molecular target: T14, 5-HT3A receptor N232C (Homo sapiens, UniProt P46098, N227C); conditions: N232C, Loop C; read-out: Kd (nM) Mean ± SEM
T14 construct: expressed in transfected cells; host or cells: HEK 293
Protocol: as §1, §2

5-HT3A receptor S114C = molecular target: T15, 5-HT3A receptor S114C (Homo sapiens, UniProt P46098, S109C); conditions: S114C; read-out: Kd (nM) Mean ± SEM
T15 construct: expressed in transfected cells; host or cells: HEK 293
Protocol: as §1, §2

5-HT3A receptor N128C = molecular target: T16, 5-HT3A receptor N128C (Homo sapiens, UniProt P46098, N123C); conditions: N128C, Loop A; read-out: Kd (nM) Mean ± SEM
T16 construct: expressed in transfected cells; host or cells: HEK 293
Protocol: as §1, §2

5-HT3A receptor K112C = molecular target: T17, 5-HT3A receptor K112C (Homo sapiens, UniProt P46098, K107C); conditions: K112C; read-out: Kd (nM) Mean ± SEM
T17 construct: expressed in transfected cells; host or cells: HEK 293
Protocol: as §1, §2

5-HT3A receptor W183C = molecular target: T18, 5-HT3A receptor W183C (Homo sapiens, UniProt P46098, W178C); conditions: Loop B, read-out: Kd (nM) Mean ± SEM
T18 construct: expressed in transfected cells; host or cells: HEK 293
Protocol: as §1, §2

5-HT3A receptor Y141C = molecular target: T19, 5-HT3A receptor Y141C (Homo sapiens, UniProt P46098, Y136C); conditions: Loop E, read-out: Kd (nM) Mean ± SEM
T19 construct: expressed in transfected cells; host or cells: HEK 293
Protocol: as §1, §2

5-HT3A receptor W90C = molecular target: T20, 5-HT3A receptor W90C (Homo sapiens, UniProt P46098, W85C); conditions: Loop D, read-out: Kd (nM) Mean ± SEM
T20 construct: expressed in transfected cells; host or cells: HEK 293
Protocol: as §1, §2

5-HT3A receptor Y143C = molecular target: T21, 5-HT3A receptor Y143C (Homo sapiens, UniProt P46098, Y138C); conditions: Loop E, read-out: Kd (nM) Mean ± SEM
T21 construct: expressed in transfected cells; host or cells: HEK 293
Protocol: as §1, §2

5-HT3A receptor Y153C = molecular target: T22, 5-HT3A receptor Y153C (Homo sapiens, UniProt P46098, Y148C); conditions: Y153C, Loop E; read-out: Kd (nM) Mean ± SEM
T22 construct: expressed in transfected cells; host or cells: HEK 293
Protocol: as §1
(§3) All data were analysed using GraphPad Prism 4.03. […].

5-HT3A receptor F226C = molecular target: T23, 5-HT3A receptor F226C (Homo sapiens, UniProt P46098, F221C); conditions: F226C, Loop C; read-out: Kd (nM) Mean ± SEM
T23 construct: expressed in transfected cells; host or cells: HEK 293
Protocol: as §1, §3

5-HT3A receptor L126C = molecular target: T24, 5-HT3A receptor L126C (Homo sapiens, UniProt P46098, L121C); conditions: L126C, Loop A; read-out: Kd (nM) Mean ± SEM
T24 construct: expressed in transfected cells; host or cells: HEK 293
Protocol: as §1, §3

T17 sequence (P46098 24-478 K107C): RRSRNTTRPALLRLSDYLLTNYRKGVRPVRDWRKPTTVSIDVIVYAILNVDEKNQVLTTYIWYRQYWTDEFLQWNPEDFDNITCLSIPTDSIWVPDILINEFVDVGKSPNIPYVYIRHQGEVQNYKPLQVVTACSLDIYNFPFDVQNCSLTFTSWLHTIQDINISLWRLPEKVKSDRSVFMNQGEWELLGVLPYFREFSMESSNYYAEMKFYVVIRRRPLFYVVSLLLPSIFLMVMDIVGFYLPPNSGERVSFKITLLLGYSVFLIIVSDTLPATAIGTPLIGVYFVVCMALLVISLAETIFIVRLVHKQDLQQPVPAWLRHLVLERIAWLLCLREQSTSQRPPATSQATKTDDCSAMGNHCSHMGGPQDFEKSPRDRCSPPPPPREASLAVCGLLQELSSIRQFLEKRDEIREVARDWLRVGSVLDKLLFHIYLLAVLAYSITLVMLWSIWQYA
T20 sequence (P46098 24-478 W85C): as the sequence (P46098 24-478 K107C) above, with W62C, C84K counted along it
T18 sequence (P46098 24-478 W178C): as the sequence (P46098 24-478 K107C) above, with C84K, W155C counted along it
T11 sequence (P46098 24-478 R53C): as the sequence (P46098 24-478 K107C) above, with R30C, C84K counted along it
T14 sequence (P46098 24-478 N227C): as the sequence (P46098 24-478 K107C) above, with C84K, N204C counted along it
T8 sequence (P46098 24-478 T174C): as the sequence (P46098 24-478 K107C) above, with C84K, T151C counted along it
T4 sequence (P46098 24-478 I134C): as the sequence (P46098 24-478 K107C) above, with C84K, I111C counted along it
T5 sequence (P46098 24-478 R140C): as the sequence (P46098 24-478 K107C) above, with C84K, R117C counted along it
T9 sequence (P46098 24-478 H180C): as the sequence (P46098 24-478 K107C) above, with C84K, H157C counted along it
T19 sequence (P46098 24-478 Y136C): as the sequence (P46098 24-478 K107C) above, with C84K, Y113C counted along it
T6 sequence (P46098 24-478 D184C): as the sequence (P46098 24-478 K107C) above, with C84K, D161C counted along it
T24 sequence (P46098 24-478 L121C): as the sequence (P46098 24-478 K107C) above, with C84K, L98C counted along it
T10 sequence (P46098 24-478 R87C): as the sequence (P46098 24-478 K107C) above, with R64C, C84K counted along it
T3 sequence (P46098 24-478 E124C): as the sequence (P46098 24-478 K107C) above, with C84K, E101C counted along it
T7 sequence (P46098 24-478 I66C): as the sequence (P46098 24-478 K107C) above, with I43C, C84K counted along it
T1 sequence (P46098 24-478 Q146C): as the sequence (P46098 24-478 K107C) above, with C84K, Q123C counted along it
T21 sequence (P46098 24-478 Y138C): as the sequence (P46098 24-478 K107C) above, with C84K, Y115C counted along it
T13 sequence (P46098 24-478 Y229C): as the sequence (P46098 24-478 K107C) above, with C84K, Y206C counted along it
T23 sequence (P46098 24-478 F221C): as the sequence (P46098 24-478 K107C) above, with C84K, F198C counted along it
T2 sequence (P46098 24-478 T176C/T181C): as the sequence (P46098 24-478 K107C) above, with C84K, T153C, T158C counted along it
T16 sequence (P46098 24-478 N123C): as the sequence (P46098 24-478 K107C) above, with C84K, N100C counted along it
T15 sequence (P46098 24-478 S109C): as the sequence (P46098 24-478 K107C) above, with C84K, S86C counted along it
T12 sequence (P46098 24-478 E231C): as the sequence (P46098 24-478 K107C) above, with C84K, E208C counted along it
T22 sequence (P46098 24-478 Y148C): as the sequence (P46098 24-478 K107C) above, with C84K, Y125C counted along it

Compound CN1CCN(c2nc3ccccc3nc2Cl)CC1 [[^3H]VUF10166] [2-chloro-3-(4-[^3H]methylpiperazin-1-yl)quinoxaline] has a Kd (5-HT3A receptor Q151C) of 1.82 ± 0.19 nM, a Kd (5-HT3A receptor T181C) of over 10 nM and a Kd (5-HT3A receptor E129C) of over 10 nM. It also gave a Kd (5-HT3A receptor I139C) of 1.55 ± 0.15 nM, a Kd (5-HT3A receptor R145C) of 0.96 ± 0.35 nM and a Kd (5-HT3A receptor D189C) of over 10 nM. For the same compound, the Kd (5-HT3A receptor I71C) was 0.23 ± 0.05 nM, the Kd (5-HT3A receptor T179C) was over 10 nM and the Kd (5-HT3A receptor H185C) was 0.96 ± 0.39 nM. For the same compound, the Kd (5-HT3A receptor R92C) was 0.88 ± 0.19 nM, the Kd (5-HT3A receptor R58C) was over 10 nM and the Kd (5-HT3A receptor E236C) was over 10 nM. For the same compound, the Kd (5-HT3A receptor Y234C) was over 10 nM, the Kd (5-HT3A receptor N232C) was 1.9 ± 0.36 nM and the Kd (5-HT3A receptor S114C) was 0.21 ± 0.09 nM. The Kd (5-HT3A receptor N128C) was 0.7 ± 0.1 nM, the Kd (5-HT3A receptor K112C) was 0.13 ± 0.03 nM and the Kd (5-HT3A receptor W183C) was over 10 nM. It also gave a Kd (5-HT3A receptor Y141C) of over 10 nM, a Kd (5-HT3A receptor W90C) of over 10 nM and a Kd (5-HT3A receptor Y143C) of over 10 nM. It also gave a Kd (5-HT3A receptor Y153C) of 2.03 ± 0.33 nM, a Kd (5-HT3A receptor F226C) of 1.59 ± 0.08 nM and a Kd (5-HT3A receptor L126C) of 0.89 ± 0.19 nM.

Reference: article PMC4220016, “The binding characteristics and orientation of a novel radioligand with distinct properties at 5-HT3A and 5-HT3AB receptors” (Neuropharmacology, 2014)
